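Values below derive from 48-hour exposures of cells grown in 96-well plates, with endpoints linearly interpolated between the two concentrations bracketing the appropriate inhibition level. Definition used: TGI = concentration required for complete inhibition of growth.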
Assays:
Assay in all cases: DTP human tumour cell line panel, 48 h
HOP-92 NSCLC = test system: HOP-92 NSCLC
MDA-N = test system: MDA-N
SN12C renal = test system: SN12C renal
UACC-257 melanoma = test system: UACC-257 melanoma
A549 NSCLC = test system: A549 NSCLC
SNB-75 CNS = test system: SNB-75 CNS
CAKI-1 renal = test system: CAKI-1 renal
RXF 393 renal = test system: RXF 393 renal
MALME-3M melanoma = test system: MALME-3M melanoma
OVCAR-8 ovarian = test system: OVCAR-8 ovarian
SF-295 CNS = test system: SF-295 CNS
OVCAR-3 ovarian = test system: OVCAR-3 ovarian
786-0 renal = test system: 786-0 renal
OVCAR-4 ovarian = test system: OVCAR-4 ovarian
IGROV1 ovarian = test system: IGROV1 ovarian
NCI-H522 lung = test system: NCI-H522 lung
UO-31 renal = test system: UO-31 renal
EKVX NSCLC = test system: EKVX NSCLC
HL-60(TB) leukemia = test system: HL-60(TB) leukemia
NCI/ADR-RES ovarian = test system: NCI/ADR-RES ovarian
UACC-62 melanoma = test system: UACC-62 melanoma
BT-549 breast = test system: BT-549 breast
SK-MEL-28 melanoma = test system: SK-MEL-28 melanoma
K-562 leukemia = test system: K-562 leukemia
NCI-H226 lung = test system: NCI-H226 lung
PC-3 prostate = test system: PC-3 prostate
SK-OV-3 ovarian = test system: SK-OV-3 ovarian
ACHN renal = test system: ACHN renal
TK-10 renal = test system: TK-10 renal
LOX IMVI melanoma = test system: LOX IMVI melanoma
HCT-15 colon = test system: HCT-15 colon
HOP-62 NSCLC = test system: HOP-62 NSCLC
MDA-MB-435 = test system: MDA-MB-435
SK-MEL-2 melanoma = test system: SK-MEL-2 melanoma
SK-MEL-5 melanoma = test system: SK-MEL-5 melanoma
OVCAR-5 ovarian = test system: OVCAR-5 ovarian
SR leukemia = test system: SR leukemia
MCF7 breast = test system: MCF7 breast
HT29 colon = test system: HT29 colon
KM12 colon = test system: KM12 colon
SNB-19 CNS = test system: SNB-19 CNS
NCI-H460 lung = test system: NCI-H460 lung
M14 melanoma = test system: M14 melanoma
HCC-2998 colon = test system: HCC-2998 colon
SF-268 CNS = test system: SF-268 CNS
NCI-H23 lung = test system: NCI-H23 lung
HS 578T breast = test system: HS 578T breast
A498 renal = test system: A498 renal
SF-539 CNS = test system: SF-539 CNS
MOLT-4 leukemia = test system: MOLT-4 leukemia
CCRF-CEM leukemia = test system: CCRF-CEM leukemia
U251 CNS = test system: U251 CNS
HCT-116 colon = test system: HCT-116 colon
RPMI-8226 leukemia = test system: RPMI-8226 leukemia
T-47D breast = test system: T-47D breast
SW-620 colon = test system: SW-620 colon
COLO 205 colon = test system: COLO 205 colon
MDA-MB-231 breast = test system: MDA-MB-231 breast
DU-145 prostate = test system: DU-145 prostate

Cc1c(-c2ccccc2)c(-c2ccc(OCCN(C)C)cc2)n2ccccc12
TGI (HOP-92 NSCLC): 24.6 µM
TGI (MDA-N): 14.3 µM
TGI (SN12C renal): 25.4 µM
TGI (UACC-257 melanoma): 4.16 µM
TGI (A549 NSCLC): 29 µM
TGI (SNB-75 CNS): 22.4 µM
TGI (CAKI-1 renal): 23.9 µM
TGI (RXF 393 renal): 25.7 µM
TGI (MALME-3M melanoma): 17.3 µM
TGI (OVCAR-8 ovarian): 28.5 µM
TGI (SF-295 CNS): 26.7 µM
TGI (OVCAR-3 ovarian): 26.1 µM
TGI (786-0 renal): 20.9 µM
TGI (OVCAR-4 ovarian): 26.1 µM
TGI (IGROV1 ovarian): 23.8 µM
TGI (NCI-H522 lung): 24 µM
TGI (UO-31 renal): 23.7 µM
TGI (EKVX NSCLC): 31.8 µM
TGI (HL-60(TB) leukemia): 19.4 µM
TGI (NCI/ADR-RES ovarian): 27.5 µM
TGI (UACC-62 melanoma): 3.66 µM
TGI (BT-549 breast): 18.7 µM
TGI (SK-MEL-28 melanoma): 3.45 µM
TGI (K-562 leukemia): 4.14 µM
TGI (NCI-H226 lung): 30.9 µM
TGI (PC-3 prostate): 20.3 µM
TGI (SK-OV-3 ovarian): 30.2 µM
TGI (ACHN renal): 27.8 µM
TGI (TK-10 renal): 27.3 µM
TGI (LOX IMVI melanoma): 5.81 µM
TGI (HCT-15 colon): 8.06 µM
TGI (HOP-62 NSCLC): 28.6 µM
TGI (MDA-MB-435): 11.4 µM
TGI (SK-MEL-2 melanoma): 21.2 µM
TGI (SK-MEL-5 melanoma): 3.44 µM
TGI (OVCAR-5 ovarian): 28.8 µM
TGI (SR leukemia): 6.49 µM
TGI (MCF7 breast): 23.7 µM
TGI (HT29 colon): 3.46 µM
TGI (KM12 colon): 15.1 µM
TGI (SNB-19 CNS): 25.3 µM
TGI (NCI-H460 lung): 7.3 µM
TGI (M14 melanoma): 3.45 µM
TGI (HCC-2998 colon): 3.27 µM
TGI (SF-268 CNS): 34.2 µM
TGI (NCI-H23 lung): 32 µM
TGI (HS 578T breast): 20.9 µM
TGI (A498 renal): 29.1 µM
TGI (SF-539 CNS): 24.8 µM
TGI (MOLT-4 leukemia): 15.8 µM
TGI (CCRF-CEM leukemia): 15.5 µM
TGI (U251 CNS): 24.7 µM
TGI (HCT-116 colon): 19 µM
TGI (RPMI-8226 leukemia): 6.96 µM
TGI (T-47D breast): 22.9 µM
TGI (SW-620 colon): 17.9 µM
TGI (COLO 205 colon): 3.08 µM
TGI (MDA-MB-231 breast): 23.6 µM
TGI (DU-145 prostate): 26.3 µM
